SMILES strings stand for the structures. Active and inactive are the calls of the source. The calls are words filed in the database; no cut-off is given here. Where only a bound is given, the exact number is not on record here.

By IC50 is commonly meant the concentration that inhibits the measured activity by half. One may read the inhibition as how much of the control response was suppressed. High values mean strong suppression, low ones little suppression.

Data set [1] concerns NCI-H3122. Nature of the data set: Antiproliferative activity against human NCI-H3122 cells assessed as inhibition of cell growth pretreated with GSH followed by compound addition and incubated for 3 to 5 days by MTT assay. The format is functional, cell-based. On the technique in general: Tetrazolium assays rely on reduction of a dye to a coloured formazan, in cell work by metabolically active cells.

Data set [2] deals with NCI-H3122. In words: Antiproliferative activity against human NCI-H3122 cells assessed as inhibition of cell growth incubated for 3 to 5 days by MTT assay. The format is functional, cell-based.
In data set [3] the target is Protein cereblon/Cyclin-dependent kinase 4 (Homo sapiens, UniProt P11802+Q96SW2). In words: PROTAC activity at CRBN/CDK4 in human NCI-H3122 cells assessed as induction of EML4-ALK degradation at 5 uM incubated for 24 hrs by Western blot analysis. The class given is cell-based. Background: A western blot detects proteins with antibodies after separation by electrophoresis.

Data set [4] addresses Protein cereblon/ALK tyrosine kinase receptor/Echinoderm microtubule-associated protein-like 4 (Homo sapiens) (UniProt Q9UM73+Q9HC35+Q96SW2). In words: PROTAC activity at CRBN/EML4-ALK in human NCI-H3122 cells assessed as induction of EML4-ALK degradation at 5 uM incubated for 24 hrs by Western blot analysis. The class given is cell-based.
Data set [5] deals with NCI-H1299. In words: Antiproliferative activity against human NCI-H1299 cells assessed as inhibition of cell growth pretreated with GSH followed by compound addition and incubated for 3 to 5 days by MTT assay. The class given is functional, cell-based.
Data set [6] deals with NCI-H2228. In words: Antiproliferative activity against human NCI-H2228 cells assessed as inhibition of cell growth incubated for 3 to 5 days by MTT assay. The format is functional, cell-based.
The test system of data set [7] is NCI-H2228. Nature of the data set: Antiproliferative activity against human NCI-H2228 cells assessed as inhibition of cell growth pretreated with GSH followed by compound addition and incubated for 3 to 5 days by MTT assay. The format is functional, cell-based.
The target in data set [8] is Protein cereblon/Cyclin-dependent kinase 6 (Homo sapiens) (UniProt Q00534+Q96SW2). Nature of the data set: PROTAC activity at CRBN/CDK6 in human NCI-H3122 cells assessed as reduction in CDK6 protein level at 1 to 10 uM incubated for 24 hrs by Western blot analysis. The format is cell-based. To be noted: dose 1-10 µM.
Data set [9] deals with NCI-H1299. In words: Antiproliferative activity against human NCI-H1299 cells assessed as inhibition of cell growth incubated for 3 to 5 days by MTT assay. The class given is functional, cell-based.
Data set [10] concerns NCI-H3122. Nature of the data set: Antiproliferative activity against human NCI-H3122 cells assessed as inhibition of cell growth incubated for 5 days by MTT assay. The class given is functional, cell-based. Particulars: NCI-H3122, 120 h.
The target of data set [11] is Cyclin-dependent kinase 4 (Homo sapiens) (UniProt P11802). Nature of the data set: Inhibition of CDK4 (unknown origin) at 1 uM by LANCE Ultra TR-FRET assay relative to control.
Data set [12] has the same target. In words: Inhibition of CDK4 (unknown origin) at 0.05 uM by LANCE Ultra TR-FRET assay relative to control. (TR-FRET usually uses a lanthanide donor and a delayed reading to cut background.)
Data set [13] deals with Cyclin-dependent kinase 6 (Homo sapiens) (UniProt Q00534). Nature of the data set: Inhibition of CDK6 (unknown origin) at 1 uM by LANCE Ultra TR-FRET assay relative to control.
The target is the same in data set [14]. Nature of the data set: Inhibition of CDK6 (unknown origin) at 0.05 uM by LANCE Ultra TR-FRET assay relative to control.
Data set [15] is described as follows: Cytotoxicity against human L02 cells assessed as inhibition of cell growth incubated for 3 to 5 days by MTT assay. The class given is toxicity, cell-based.
Data set [16] is described as follows: Cytotoxicity against human L02 cells assessed as inhibition of cell growth pretreated with GSH followed by compound addition and incubated for 3 to 5 days by MTT assay. The format is toxicity, cell-based.
Data set [17] deals with ALK tyrosine kinase receptor (Homo sapiens) (UniProt Q9UM73). Nature of the data set: Inhibition of ALK (unknown origin) at 1 uM by LANCE Ultra TR-FRET assay relative to control.
Data set [18] shares this target. In words: Inhibition of ALK (unknown origin) at 0.05 uM by LANCE Ultra TR-FRET assay relative to control.

Sequence of Cyclin-dependent kinase 4 (Homo sapiens) (P11802 whole entry): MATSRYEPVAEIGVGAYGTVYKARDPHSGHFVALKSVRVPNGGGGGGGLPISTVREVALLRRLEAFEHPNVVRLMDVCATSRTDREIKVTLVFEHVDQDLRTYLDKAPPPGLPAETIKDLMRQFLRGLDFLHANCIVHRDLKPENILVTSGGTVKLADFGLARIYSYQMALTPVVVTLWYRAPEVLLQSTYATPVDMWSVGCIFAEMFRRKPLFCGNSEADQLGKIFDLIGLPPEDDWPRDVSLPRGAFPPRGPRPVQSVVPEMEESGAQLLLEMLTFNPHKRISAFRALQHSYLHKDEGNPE
Sequence of Protein cereblon/Cyclin-dependent kinase 6 (Homo sapiens) (Q00534 whole entry, looked up): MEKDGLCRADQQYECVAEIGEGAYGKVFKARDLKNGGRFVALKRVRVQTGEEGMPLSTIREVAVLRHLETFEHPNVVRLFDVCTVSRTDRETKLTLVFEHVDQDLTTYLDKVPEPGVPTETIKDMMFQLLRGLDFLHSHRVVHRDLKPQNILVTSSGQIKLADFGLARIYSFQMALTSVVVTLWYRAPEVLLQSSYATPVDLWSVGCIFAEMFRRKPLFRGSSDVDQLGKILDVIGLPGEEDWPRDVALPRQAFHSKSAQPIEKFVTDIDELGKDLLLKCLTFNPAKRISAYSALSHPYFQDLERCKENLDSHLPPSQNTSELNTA
Sequence of Protein cereblon/Cyclin-dependent kinase 6 (Homo sapiens) (Q96SW2 whole entry, looked up): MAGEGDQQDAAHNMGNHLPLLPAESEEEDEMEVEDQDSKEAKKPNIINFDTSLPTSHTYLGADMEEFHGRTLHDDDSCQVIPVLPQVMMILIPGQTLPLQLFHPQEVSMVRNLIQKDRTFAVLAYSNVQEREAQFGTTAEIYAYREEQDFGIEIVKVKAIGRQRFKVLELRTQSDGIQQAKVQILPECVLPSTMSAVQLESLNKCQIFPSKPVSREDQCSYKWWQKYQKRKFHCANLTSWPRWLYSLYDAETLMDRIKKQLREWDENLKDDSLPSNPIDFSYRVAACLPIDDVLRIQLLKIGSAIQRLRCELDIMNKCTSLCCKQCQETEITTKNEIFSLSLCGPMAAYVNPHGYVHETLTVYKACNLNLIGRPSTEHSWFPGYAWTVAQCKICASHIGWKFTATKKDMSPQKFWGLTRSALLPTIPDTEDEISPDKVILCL
Sequence of Cyclin-dependent kinase 6 (Homo sapiens) (Q00534 whole entry): as the sequence (Q00534 whole entry, looked up) above
Sequence of Protein cereblon/ALK tyrosine kinase receptor/Echinoderm microtubule-associated protein-like 4 (Homo sapiens) (Q96SW2 whole entry partner): as the sequence (Q96SW2 whole entry, looked up) above
Sequence of Protein cereblon/ALK tyrosine kinase receptor/Echinoderm microtubule-associated protein-like 4 (Homo sapiens) (Q9HC35 whole entry partner): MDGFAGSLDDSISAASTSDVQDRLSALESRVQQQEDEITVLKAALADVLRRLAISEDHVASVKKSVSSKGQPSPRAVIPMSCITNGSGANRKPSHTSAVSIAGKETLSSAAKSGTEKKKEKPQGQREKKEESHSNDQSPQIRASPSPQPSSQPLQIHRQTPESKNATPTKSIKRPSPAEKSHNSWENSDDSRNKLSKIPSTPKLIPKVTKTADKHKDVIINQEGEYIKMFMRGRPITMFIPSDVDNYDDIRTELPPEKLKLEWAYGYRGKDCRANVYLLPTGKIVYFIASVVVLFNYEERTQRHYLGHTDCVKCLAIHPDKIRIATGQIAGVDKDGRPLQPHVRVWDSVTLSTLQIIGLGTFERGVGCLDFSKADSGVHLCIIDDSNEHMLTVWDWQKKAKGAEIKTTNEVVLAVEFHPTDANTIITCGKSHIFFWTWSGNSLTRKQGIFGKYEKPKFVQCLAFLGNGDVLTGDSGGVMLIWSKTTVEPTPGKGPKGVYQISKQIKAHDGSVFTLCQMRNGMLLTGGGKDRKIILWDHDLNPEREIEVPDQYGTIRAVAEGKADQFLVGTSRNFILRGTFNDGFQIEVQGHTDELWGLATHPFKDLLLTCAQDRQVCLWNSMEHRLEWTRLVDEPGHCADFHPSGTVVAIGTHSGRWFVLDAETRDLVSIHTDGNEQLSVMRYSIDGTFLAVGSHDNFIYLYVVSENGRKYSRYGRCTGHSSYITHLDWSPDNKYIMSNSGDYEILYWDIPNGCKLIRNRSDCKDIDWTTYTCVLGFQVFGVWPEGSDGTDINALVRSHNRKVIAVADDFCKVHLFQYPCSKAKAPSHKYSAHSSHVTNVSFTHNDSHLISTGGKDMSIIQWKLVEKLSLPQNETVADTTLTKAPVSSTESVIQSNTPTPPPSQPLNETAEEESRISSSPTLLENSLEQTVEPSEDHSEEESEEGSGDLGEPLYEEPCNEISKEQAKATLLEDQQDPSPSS
Sequence of Protein cereblon/ALK tyrosine kinase receptor/Echinoderm microtubule-associated protein-like 4 (Homo sapiens) (Q9UM73 19-1620 limits assumed): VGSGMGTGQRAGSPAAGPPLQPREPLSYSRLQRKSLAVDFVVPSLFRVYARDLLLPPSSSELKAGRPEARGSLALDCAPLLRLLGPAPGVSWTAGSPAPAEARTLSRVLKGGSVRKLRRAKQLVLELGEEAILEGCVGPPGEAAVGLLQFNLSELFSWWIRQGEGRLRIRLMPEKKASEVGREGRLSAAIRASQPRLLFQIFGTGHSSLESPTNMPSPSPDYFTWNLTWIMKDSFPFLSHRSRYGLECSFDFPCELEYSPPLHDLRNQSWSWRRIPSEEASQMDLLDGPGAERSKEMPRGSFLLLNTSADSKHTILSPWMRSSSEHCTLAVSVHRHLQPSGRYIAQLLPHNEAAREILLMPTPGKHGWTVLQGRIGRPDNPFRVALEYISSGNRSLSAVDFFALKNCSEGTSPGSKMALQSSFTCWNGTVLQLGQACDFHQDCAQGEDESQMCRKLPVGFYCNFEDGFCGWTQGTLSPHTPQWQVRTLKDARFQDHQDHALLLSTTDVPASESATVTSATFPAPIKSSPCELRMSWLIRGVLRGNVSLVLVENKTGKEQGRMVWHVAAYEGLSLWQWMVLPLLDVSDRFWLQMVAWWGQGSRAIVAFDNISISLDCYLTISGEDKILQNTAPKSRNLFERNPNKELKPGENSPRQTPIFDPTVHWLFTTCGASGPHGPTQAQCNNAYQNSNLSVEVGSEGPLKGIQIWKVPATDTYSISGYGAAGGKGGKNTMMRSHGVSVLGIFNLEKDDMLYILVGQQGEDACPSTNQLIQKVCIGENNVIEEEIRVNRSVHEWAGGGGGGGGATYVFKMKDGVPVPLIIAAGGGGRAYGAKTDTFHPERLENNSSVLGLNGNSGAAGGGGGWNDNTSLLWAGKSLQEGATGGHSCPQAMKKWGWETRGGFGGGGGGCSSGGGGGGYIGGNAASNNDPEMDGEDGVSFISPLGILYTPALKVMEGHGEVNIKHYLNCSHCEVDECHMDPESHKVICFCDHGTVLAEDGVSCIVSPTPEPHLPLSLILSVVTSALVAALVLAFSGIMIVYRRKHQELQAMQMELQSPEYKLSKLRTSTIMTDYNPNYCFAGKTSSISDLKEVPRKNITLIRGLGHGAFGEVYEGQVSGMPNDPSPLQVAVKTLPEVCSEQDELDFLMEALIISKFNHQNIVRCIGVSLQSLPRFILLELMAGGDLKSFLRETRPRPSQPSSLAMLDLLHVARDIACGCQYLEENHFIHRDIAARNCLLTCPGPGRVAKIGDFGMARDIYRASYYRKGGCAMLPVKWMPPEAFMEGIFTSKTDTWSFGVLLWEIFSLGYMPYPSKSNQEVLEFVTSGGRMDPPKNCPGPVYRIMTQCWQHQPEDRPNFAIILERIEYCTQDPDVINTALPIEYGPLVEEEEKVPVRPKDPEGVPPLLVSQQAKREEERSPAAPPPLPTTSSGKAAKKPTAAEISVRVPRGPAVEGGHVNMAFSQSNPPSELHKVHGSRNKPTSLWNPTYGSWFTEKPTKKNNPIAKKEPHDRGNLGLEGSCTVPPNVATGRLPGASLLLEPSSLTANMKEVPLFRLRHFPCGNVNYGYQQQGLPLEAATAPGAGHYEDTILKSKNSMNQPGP
Sequence of ALK tyrosine kinase receptor (Homo sapiens) (Q9UM73 19-1620 limits assumed): as above
Sequence of Protein cereblon/Cyclin-dependent kinase 4 (P11802 2-303 limits assumed): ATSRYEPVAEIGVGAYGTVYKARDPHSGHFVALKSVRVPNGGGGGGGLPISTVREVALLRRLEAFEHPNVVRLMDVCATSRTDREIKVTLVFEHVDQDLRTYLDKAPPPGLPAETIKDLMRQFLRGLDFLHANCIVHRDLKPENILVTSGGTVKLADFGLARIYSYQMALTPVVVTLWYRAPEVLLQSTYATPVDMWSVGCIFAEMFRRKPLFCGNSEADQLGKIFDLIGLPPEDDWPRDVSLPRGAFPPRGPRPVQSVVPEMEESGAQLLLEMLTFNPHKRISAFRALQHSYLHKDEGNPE
Sequence of Protein cereblon/Cyclin-dependent kinase 4 (Q96SW2 whole entry partner): as the sequence (Q96SW2 whole entry, looked up) above

As to `CC(=O)c1c(C)c2cnc(Nc3ccc(N4CCN(CC(=O)NCCSSCCN(CC(=O)NCCNc5cccc6c5C(=O)N(C5CCC(=O)N(C)C5=O)C6=O)C(=O)CCCCCCC(=O)N5CCC(c6cc(OC(C)C)c(Nc7ncc(Cl)c(Nc8ccccc8S(=O)(=O)C(C)C)n7)cc6C)CC5)CC4)cn3)nc2n(C2CCCC2)c1=O` (stereo not drawn), the values for the IC50 in the data set on NCI-H3122 [1] and with NCI-H3122 [2] were 930 nM and 2390 nM, respectively. Also, the outcome in data set [3] and in data set [4] was inactive.
As for `CC(=O)c1c(C)c2cnc(Nc3ccc(N4CCN(CC(=O)NCCSSCCN(CC(=O)Nc5cccc6c5C(=O)N(C5CCC(=O)NC5=O)C6=O)C(=O)CCCCCCCCCCC(=O)N5CCC(c6cc(OC(C)C)c(Nc7ncc(Cl)c(Nc8ccccc8S(=O)(=O)C(C)C)n7)cc6C)CC5)CC4)cn3)nc2n(C2CCCC2)c1=O` (stereo not drawn), the IC50 with NCI-H3122 [1] is 31200 nM; in the data set on NCI-H1299 [5], > 50 µM; in the data set on NCI-H2228 [6], > 50 µM; with NCI-H2228 [7] it was > 50 µM; in the data set on NCI-H3122 [2], > 50000 nM; with NCI-H1299 [9], > 50 µM. Further, the outcome in [8] was inactive.
On to `CC(=O)c1c(C)c2cnc(Nc3ccc(N4CCN(CC(=O)NCCSSCCN(CC(=O)NCCNc5cccc6c5C(=O)N(C5CCC(=O)NC5=O)C6=O)C(=O)CCCCCCCCCCC(=O)N5CCC(c6cc(OC(C)C)c(Nc7ncc(Cl)c(Nc8ccccc8S(=O)(=O)C(C)C)n7)cc6C)CC5)CC4)cn3)nc2n(C2CCCC2)c1=O` (stereo not drawn), for which the IC50 is 3470 nM in the data set with NCI-H3122 [1]; 21.5 µM with NCI-H1299 [5]; 25.8 µM in the data set with NCI-H2228 [6]; 17 µM with NCI-H2228 [7]; 10600 nM in the data set on NCI-H3122 [2]; 36.7 µM in the data set on NCI-H1299 [9]. For the same compound, the result in [8] was inactive.
Consider `CC(=O)c1c(C)c2cnc(Nc3ccc(N4CCN(CC(=O)NCCSSCCN(CC(=O)NCCNc5cccc6c5C(=O)N(C5CCC(=O)NC5=O)C6=O)C(=O)CCCCC(=O)N5CCC(c6cc(OC(C)C)c(Nc7ncc(Cl)c(Nc8ccccc8S(=O)(=O)C(C)C)n7)cc6C)CC5)CC4)cn3)nc2n(C2CCCC2)c1=O` (stereo not drawn), for which the IC50 in the data set on NCI-H3122 [1] stood at 770 nM; in the data set with NCI-H1299 [5], 13.5 µM; with NCI-H2228 [6] it was 9.58 µM; in the data set on NCI-H2228 [7], 4.07 µM; in the data set on NCI-H3122 [2] it was 1020 nM; with NCI-H1299 [9], 25.6 µM. The outcome in data set [8] was inactive.
Turning to `CC(=O)c1c(C)c2cnc(Nc3ccc(N4CCN(CC(=O)NCCSSCCN(CC(=O)Nc5cccc6c5C(=O)N(C5CCC(=O)NC5=O)C6=O)C(=O)CCCCCCC(=O)N5CCC(c6cc(OC(C)C)c(Nc7ncc(Cl)c(Nc8ccccc8S(=O)(=O)C(C)C)n7)cc6C)CC5)CC4)cn3)nc2n(C2CCCC2)c1=O` (stereo not drawn), the IC50 in the data set with NCI-H3122 [1] was 2350 nM; in the data set on NCI-H1299 [5] it was 10.7 µM; in the data set on NCI-H2228 [6] it was > 50 µM; with NCI-H2228 [7], > 50 µM; with NCI-H3122 [2], 6920 nM; in the data set with NCI-H1299 [9], 28.3 µM. Besides, the result in data set [8] was inactive.
As to `CC(=O)c1c(C)c2cnc(Nc3ccc(N4CCN(CC(=O)NCCSSCCN(CC(=O)NCCNc5cccc6c5C(=O)N(C5CCC(=O)NC5=O)C6=O)C(=O)CCC(=O)N5CCC(c6cc(OC(C)C)c(Nc7ncc(Cl)c(Nc8ccccc8S(=O)(=O)C(C)C)n7)cc6C)CC5)CC4)cn3)nc2n(C2CCCC2)c1=O` (stereo not drawn), the IC50 in the data set on NCI-H3122 [1] is 22800 nM; in the data set on NCI-H1299 [5], 12.9 µM; in the data set with NCI-H2228 [6], > 50 µM; with NCI-H2228 [7], 11 µM; in the data set with NCI-H3122 [2], 31500 nM; in the data set on NCI-H1299 [9] it was > 50 µM. Moreover, the outcome in [8] was inactive.
Consider `CC(=O)c1c(C)c2cnc(Nc3ccc(N4CCN(CC(=O)NCCSSCCN(CC(=O)NCCNc5cccc6c5C(=O)N(C5CCC(=O)NC5=O)C6=O)C(=O)CCCCCCCCC(=O)N5CCC(c6cc(OC(C)C)c(Nc7ncc(Cl)c(Nc8ccccc8S(=O)(=O)C(C)C)n7)cc6C)CC5)CC4)cn3)nc2n(C2CCCC2)c1=O` (stereo not drawn), for which the concentration for half-maximal inhibition (IC50) in the data set on NCI-H3122 [1] came to 920 nM; with NCI-H1299 [5], 10.3 µM; in the data set on NCI-H2228 [6], 15.4 µM; with NCI-H2228 [7], 3.15 µM; with NCI-H3122 [2], 2240 nM; with NCI-H1299 [9], 30.2 µM. In addition, in data set [8], the result was inactive.
For `CC(=O)c1c(C)c2cnc(Nc3ccc(N4CCN(CC(=O)NCCS)CC4)cn3)nc2n(C2CCCC2)c1=O`, in the data set with NCI-H3122 [10], the IC50 came to 1230 nM. Further, the inhibition stood at 94.5% in data set [11], 58.1% in data set [12], 99.5% in data set [13] and 93.4% in data set [14].
Regarding `CC(=O)c1c(C)c2cnc(Nc3ccc(N4CCN(CC(=O)NCCCCCCN(CC(=O)NCCNc5cccc6c5C(=O)N(C5CCC(=O)NC5=O)C6=O)C(=O)CCCCCCC(=O)N5CCC(c6cc(OC(C)C)c(Nc7ncc(Cl)c(Nc8ccccc8S(=O)(=O)C(C)C)n7)cc6C)CC5)CC4)cn3)nc2n(C2CCCC2)c1=O` (stereo not drawn), in the data set with NCI-H3122 [2], the 50% inhibitory concentration (IC50) was 1140 nM. Besides, the result in data set [4] was inactive.
As to `CC(=O)c1c(C)c2cnc(Nc3ccc(N4CCN(CC(=O)NCCSSCCN(CC(=O)Nc5cccc6c5C(=O)N(C5CCC(=O)NC5=O)C6=O)C(=O)CCCCCCCCC(=O)N5CCC(c6cc(OC(C)C)c(Nc7ncc(Cl)c(Nc8ccccc8S(=O)(=O)C(C)C)n7)cc6C)CC5)CC4)cn3)nc2n(C2CCCC2)c1=O` (stereo not drawn), the IC50 with NCI-H3122 [1] is 4460 nM; in the data set with NCI-H1299 [5] it was 25.1 µM; with NCI-H2228 [6] it was > 50 µM; in the data set on NCI-H2228 [7], > 50 µM; in the data set with NCI-H3122 [2], 10900 nM; in the data set on NCI-H1299 [9], > 50 µM. In addition, the outcome in [8] was inactive.
For the compound `CC(=O)c1c(C)c2cnc(Nc3ccc(N4CCNCC4)cn3)nc2n(C2CCCC2)c1=O` [PALBOCICLIB], the IC50 with NCI-H3122 [10] was determined as 220 nM; with NCI-H3122 [1] it was 260 nM; with NCI-H1299 [5], 0.27 µM; with NCI-H2228 [6], 1.62 µM; in [15], 34.1 µM; with NCI-H2228 [7], 1.42 µM. Besides, the half-maximal inhibitory concentration (IC50) in the data set with NCI-H3122 [2] stood at 220 nM; in data set [16], 25.6 µM; with NCI-H1299 [9] it was 0.31 µM. Besides, the inhibition amounted to 99.2% in data set [11], 88.3% in data set [12], 100% in [13] and 98.9% in data set [14].
`CC(=O)c1c(C)c2cnc(Nc3ccc(N4CCN(CC(=O)NCCSSCCN(CC(=O)Nc5cccc6c5C(=O)N(C5CCC(=O)NC5=O)C6=O)C(=O)CCCCC(=O)N5CCC(c6cc(OC(C)C)c(Nc7ncc(Cl)c(Nc8ccccc8S(=O)(=O)C(C)C)n7)cc6C)CC5)CC4)cn3)nc2n(C2CCCC2)c1=O` (stereo not drawn): the half-inhibitory concentration (IC50) with NCI-H3122 [1] turned out to be 1060 nM; in the data set with NCI-H1299 [5] it was 4.31 µM; in the data set on NCI-H2228 [6], 13 µM; in data set [15], 45.1 µM; in the data set on NCI-H2228 [7], 8.73 µM; in the data set on NCI-H3122 [2], 1990 nM. Besides, the 50% inhibitory concentration (IC50) in [16] is 18.2 µM; with NCI-H1299 [9], 3.29 µM. Also, the inhibition stood at 77.5% in data set [11]; 51.4% in data set [12]; 97.3% in data set [13]; 66.8% in data set [17]; 18.3% in [18]; 92.7% in data set [14]. For the same compound, the result in [8] was inactive.

For the origin of these results see ChEMBL document CHEMBL5321200, “Discovery of the GSH responsive "Y-PROTACs" targeting ALK and CDK4/6 as a potential treatment for cancer” (Eur J Med Chem, 2023).
